The source of these data is patent US8299096B2, “Method for treating pulmonary diseases using rho kinase inhibitor compounds” (priority 2008, dated 2012).

Series [1] in a line: Compound plasma concentrations in mice at 15 min post administration. Format: in vivo, mouse. As to conditions: mouse; mice, plasma, 15 min post administration (oral dosing), mean of n = 3 mice; read-out: Plasma Mean Concentration.
Procedure: Additionally, compound concentrations were determined in the plasma and lungs of male, ovalbumin-sensitized, Balb/c mice from a murine model of asthma. Test compounds were formulated in water or 1% polysorbate 80 and dosed at 15 μmol/kg for intraperitoneal (IP) or oral (PO) administration or formulated for intratracheal (IT) administration and dosed at 5 μmol/kg, which directly targets the lungs. Following completion of the in vivo study, mice were euthanized and blood and plasma collected approximately 2.5-3 hours post administration of test compound for bronchodialator (BD) studies and 24 hours post administration for anti-inflamatory (AI) studies. Lungs were homogenized in Matrix A lysing tubes using a FastPrep 24 tissue and cell homogenizer (MP Biomedicals, Solon, Ohio). Both plasma samples and lung extracts were assayed for compound concentrations using an on-line, solid phase extraction LC/MS/MS system.
Series [2] concerns ovalbumin-sensitized mice. In words: Prevention of airway hyperreactivity development, anti-inflammatory dosing paradigm (Penh). As to conditions: anti-inflammatory dosing paradigm. Format: in vivo, mouse.

`c1cc(N[C@@H]2CCN(Cc3ccc4c(c3)OCCO4)C2)c2ccncc2c1` [Compound 2.056]: the concentration at 15 min in series [1] is 1260 nM.

Regarding `OCc1ccc(CN2CCC[C@H](Nc3ccc4[nH]ncc4c3)C2)cc1` [Compound 1.223], in series [1], the concentration at 15 min came out at 12.8 nM.

Take `Cc1cccc(CN2CCC[C@@H](Nc3ccc4[nH]ncc4c3)C2)c1C` [Compound 1.172]: in series [1], the concentration at 15 min is 111 nM.

As to `CN(c1cccc(CN2CCC[C@H](Nc3ccc4[nH]ncc4c3)C2)c1)S(C)(=O)=O` [Compound 1.198], in series [1], the concentration at 15 min worked out at 643 nM.

As to `Oc1cccc(CN2CCC[C@@H](Nc3ccc4[nH]ncc4c3)C2)c1` [Compound 1.145], in series [1], the concentration at 15 min came to 109 nM.

Regarding `c1ccc(CN2CCC[C@@H](Nc3ccc4[nH]ncc4c3)C2)cc1` [Compound 1.110], in series [1], the concentration at 15 min turned out to be 792 nM.

As for `COc1ccc(CN2CCC[C@H](Nc3ccc4[nH]ncc4c3)C2)cc1NS(C)(=O)=O` [Compound 1.234], the concentration at 15 min in series [1] came out at 240 nM.

Turning to `OCCOc1cccc(CN2CCC[C@@H](Nc3ccc4[nH]ncc4c3)C2)c1` [Compound 1.092], the concentration at 15 min in series [1] was determined as 314 nM.

Consider `O=C(COc1cccc(CN2CCC[C@@H](Nc3ccc4[nH]ncc4c3)C2)c1)N1CCOCC1` [Compound 1.127], for which the concentration at 15 min in series [1] came out at 980 nM.

As for `CCOc1cccc(CN2CCC[C@@H](Nc3ccc4[nH]ncc4c3)C2)c1` [Compound 1.203], the concentration at 15 min in series [1] was determined as 1130 nM.

Take `Cc1ccc(CN2CCC[C@H](Nc3ccc4[nH]ncc4c3)C2)cc1` [Compound 1.078]: the concentration at 15 min in series [1] came to 1020 nM.

Consider `OCCOc1cccc(CN2CCC[C@H](Nc3ccc4[nH]ncc4c3)C2)c1` [Compound 1.090], for which the concentration at 15 min in series [1] is 5.9 nM.

In the case of `CC(C)(C)NCC(O)c1ccc(O)c(CO)c1` (stereo not shown) [Salbutamol, reference compound], the “Efficacy using the anti-inflammatory dosing paradigm” value in series [2] was “ineffective”.

`Brc1cccc(CN2CCC[C@@H](Nc3ccc4[nH]ncc4c3)C2)c1` [Compound 1.210]: the concentration at 15 min in series [1] was found to be 286 nM.

For `c1cc(C2CC2)ccc1CN1CCC[C@H](Nc2ccc3[nH]ncc3c2)C1` [Compound 1.185], the concentration at 15 min in series [1] was 1020 nM.

In the case of `Cc1ccc(CN2CCC[C@H](Nc3ccc4[nH]ncc4c3)C2)cc1O` [Compound 1.151], in series [1], the concentration at 15 min came to 479 nM.

For the molecule `Fc1ccc(CN2CCC[C@@H](Nc3ccc4[nH]ncc4c3)C2)cc1` [Compound 1.146], the concentration at 15 min in series [1] was determined as 1260 nM.

On to `c1cc2cc(CN3CCC[C@@H](Nc4ccc5[nH]ncc5c4)C3)ccc2[nH]1` [Compound 1.143], for which, in series [1], the concentration at 15 min came out at 274 nM.

For `CC(C)c1ccc(CN2CCC[C@@H](Nc3ccc4[nH]ncc4c3)C2)cc1` [Compound 1.204], the concentration at 15 min in series [1] was 549 nM.

For `Clc1cccc(CN2CCC[C@H](Nc3ccc4[nH]ncc4c3)C2)c1` [Compound 1.170], the concentration at 15 min in series [1] came out at 639 nM.

Turning to `CC(=O)NCc1cccc(CN2CC[C@@H](Nc3cccc4cnccc34)C2)c1` [Compound 2.063], the concentration at 15 min in series [1] came to 348 nM.

Consider `OCCOc1cccc(CN2CCC[C@H](Nc3cccc4cnccc34)C2)c1` [Compound 2.036], for which the concentration at 15 min in series [1] turned out to be 1340 nM.

Turning to `C=Cc1ccc(CN2CCC[C@H](Nc3ccc4[nH]ncc4c3)C2)cc1` [Compound 1.229], in series [1], the concentration at 15 min is 1450 nM.

In the case of `CCSc1ccc(CN2CCC[C@H](Nc3ccc4[nH]ncc4c3)C2)cc1` [Compound 1.168], in series [1], the concentration at 15 min came to 588 nM.

As for `c1ccc(CN2CCC[C@H](Nc3ccc4[nH]ncc4c3)C2)cc1` [Compound 1.227], in series [1], the concentration at 15 min worked out at 1860 nM.

For `c1cc2c(cc1CN1CCC[C@@H](Nc3ccc4[nH]ncc4c3)C1)CCO2` [Compound 1.246], in series [1], the concentration at 15 min is 587 nM.

For `COc1ccc(CN2CCC[C@@H](Nc3ccc4[nH]ncc4c3)C2)cc1` [Compound 1.226], the concentration at 15 min in series [1] was determined as 526 nM.

`Brc1ccc(CN2CCC[C@H](Nc3ccc4[nH]ncc4c3)C2)cc1` [Compound 1.142]: the concentration at 15 min in series [1] was 330 nM.

Consider `Clc1ccc(CN2CC[C@@H](Nc3cccc4cnccc34)C2)cc1` [Compound 2.027], for which the concentration at 15 min in series [1] turned out to be 503 nM.

As to `Fc1ccc(CN2CC[C@@H](Nc3cccc4cnccc34)C2)cc1F` [Compound 2.062], the concentration at 15 min in series [1] came to 660 nM.

Consider `COc1ccc(CN2CC[C@@H](Nc3ccc4[nH]ncc4c3)C2)cc1` [Compound 1.245], for which, in series [1], the concentration at 15 min was 1520 nM.

With `Brc1cccc(CN2CCC[C@H](Nc3ccc4[nH]ncc4c3)C2)c1` [Compound 1.183], in series [1], the concentration at 15 min was 708 nM.

Consider `OCCOc1cccc(CN2CCC[C@@H](Nc3cccc4cnccc34)C2)c1` [Compound 2.034], for which, in series [1], the concentration at 15 min came to 665 nM.

`O=C(COc1cccc(CN2CC[C@@H](Nc3cccc4cnccc34)C2)c1)N1CCOCC1` [Compound 2.043]: the concentration at 15 min in series [1] came out at 60.8 nM.

Turning to `C=Cc1ccc(CN2CCC[C@@H](Nc3ccc4[nH]ncc4c3)C2)cc1` [Compound 1.208], the concentration at 15 min in series [1] was 281 nM.

As for `Fc1ccc(CN2CCC[C@H](Nc3ccc4[nH]ncc4c3)C2)cc1F` [Compound 1.072], the concentration at 15 min in series [1] was 1770 nM.

`CSc1cccc(CN2CCC[C@@H](Nc3ccc4[nH]ncc4c3)C2)c1` [Compound 1.159]: in series [1], the concentration at 15 min was 250 nM.

Take `CS(=O)(=O)c1cccc(CN2CCC[C@H](Nc3ccc4[nH]ncc4c3)C2)c1` [Compound 1.182]: the concentration at 15 min in series [1] is 452 nM.

Regarding `NC(=O)Cn1ccc2ccc(CN3CCC[C@@H](Nc4ccc5[nH]ncc5c4)C3)cc21` [Compound 1.106], the concentration at 15 min in series [1] stood at 441 nM.

Turning to `Clc1cccc(CN2CCC[C@@H](Nc3ccc4[nH]ncc4c3)C2)c1` [Compound 1.191], the concentration at 15 min in series [1] stood at 260 nM.

For `NC(=O)Cn1ccc2ccc(CN3CCC[C@H](Nc4ccc5[nH]ncc5c4)C3)cc21` [Compound 1.107], in series [1], the concentration at 15 min is 211 nM.

For the molecule `c1cc(CN2CCC[C@@H](Nc3ccc4[nH]ncc4c3)C2)cc(C2CC2)c1` [Compound 1.202], in series [1], the concentration at 15 min was determined as 130 nM.

As for `Cc1ccc(CN2CCC[C@H](Nc3ccc4[nH]ncc4c3)C2)c(C)c1` [Compound 1.155], in series [1], the concentration at 15 min was found to be 32.4 nM.

Turning to `Cc1ccc(CN2CC[C@@H](Nc3ccc4[nH]ncc4c3)C2)cc1` [Compound 1.242], the concentration at 15 min in series [1] came out at 580 nM.

Consider `c1cc2c(cc1CN1CCC[C@@H](Nc3ccc4[nH]ncc4c3)C1)OCCO2` [Compound 1.177], for which the concentration at 15 min in series [1] amounted to 283 nM.

Consider `CC(=O)NCc1cccc(CN2CCC[C@@H](Nc3ccc4[nH]ncc4c3)C2)c1` [Compound 1.194], for which the concentration at 15 min in series [1] is 355 nM.
